ChEMBL document CHEMBL3871299, “Design and synthesis of new piperidone grafted acetylcholinesterase inhibitors” (Bioorg Med Chem Lett, 2017)

Assays:
Acetylcholinesterase [1] = biological target: T1, Acetylcholinesterase (Homo sapiens, UniProt P22303); experiment: Inhibition of acetylcholinesterase (unknown origin) assessed as reduction in formation of 5-thio-2-nitrobenzoate from acetylthiocholine iodide at 5 ug/ml preincubated for 15 mins followed by substrate addition measured after 30 mins by Ellman's method
T1 sequence (P22303 whole entry): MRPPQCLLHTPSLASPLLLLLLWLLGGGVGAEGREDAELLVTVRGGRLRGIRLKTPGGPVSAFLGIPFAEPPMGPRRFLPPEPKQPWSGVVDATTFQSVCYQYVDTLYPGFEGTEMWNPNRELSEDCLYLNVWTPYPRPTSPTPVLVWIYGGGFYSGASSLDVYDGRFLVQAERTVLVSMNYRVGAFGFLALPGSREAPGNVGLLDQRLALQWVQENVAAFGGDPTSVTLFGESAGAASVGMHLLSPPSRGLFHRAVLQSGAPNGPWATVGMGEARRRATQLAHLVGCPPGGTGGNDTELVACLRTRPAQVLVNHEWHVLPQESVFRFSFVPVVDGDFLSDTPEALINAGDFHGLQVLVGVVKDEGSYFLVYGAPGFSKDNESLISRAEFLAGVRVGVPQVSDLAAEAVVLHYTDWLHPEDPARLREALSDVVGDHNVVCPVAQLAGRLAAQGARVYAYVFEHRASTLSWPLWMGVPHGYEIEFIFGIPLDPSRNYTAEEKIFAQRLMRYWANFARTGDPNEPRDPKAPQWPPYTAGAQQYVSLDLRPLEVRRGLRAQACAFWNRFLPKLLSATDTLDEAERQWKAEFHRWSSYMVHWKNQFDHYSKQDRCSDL

Acetylcholinesterase [2] = biological target: T1, Acetylcholinesterase; experiment: Inhibition of acetylcholinesterase (unknown origin) assessed as reduction in formation of 5-thio-2-nitrobenzoate from acetylthiocholine iodide preincubated for 15 mins followed by substrate addition measured after 30 mins by Ellman's method
[3] = Cytotoxicity against human SH-SY5Y cells assessed as reduction in cell viability at 0.2 to 40 uM measured after 24 hrs by MTT assay; type: toxicity, cell-based

SMILES | inhibition (Acetylcholinesterase [1]) | IC50 (Acetylcholinesterase [2]) | Activity [3]
Brc1ccc(C2=CSC3=NC4=C(CNCC4=Cc4ccccc4)C(c4ccccc4)N23)cc1 (configuration not stated) | 48.7% |  | 
Cc1ccc(C2=CSC3=NC4=C(CNCC4=Cc4ccc(Br)cc4)C(c4ccc(Br)cc4)N23)cc1 (configuration not stated) | 68.3% | 1010 nM | Non-Toxic
Cc1cccc(CN2C/C(=C\c3ccccc3)C(=O)/C(=C/c3ccccc3)C2)c1 | 63.1% | 3180 nM | 
Clc1ccc(C=C2CNCC3=C2N=C2SC=C(c4ccc5ccccc5c4)N2C3c2ccc(Cl)cc2)cc1 (configuration not stated) | 62.8% | 1350 nM | 
Clc1ccc(C=C2CNCC3=C2N=C2SC=C(c4ccccc4)N2C3c2ccc(Cl)cc2)cc1 (configuration not stated) | 41.6% |  | 
Brc1ccc(C=C2CNCC3=C2N=C2SC=C(c4ccccc4)N2C3c2ccc(Br)cc2)cc1 (configuration not stated) | 66.7% | 1480 nM | 
Cc1ccc(C=C2CNCC3=C2N=C2SC=C(c4ccc(C)cc4)N2C3c2ccc(C)cc2)cc1 (configuration not stated) | 60.4% | 1800 nM | 
Cc1cccc(CN2C/C(=C\c3ccc(Cl)cc3)C(=O)/C(=C/c3ccc(Cl)cc3)C2)c1 | 41.6% |  | 
C(=C1CNCC2=C1N=C1SC=C(c3ccccc3)N1C2c1ccccc1)c1ccccc1 (configuration not stated) | 48.6% |  | 
Cc1ccc(C2=CSC3=NC4=C(CNCC4=Cc4ccccc4)C(c4ccccc4)N23)cc1 (configuration not stated) | 42.1% |  | 
Cc1ccc(/C=C2\CN(Cc3ccc4ccccc4c3)C/C(=C\c3ccc(C)cc3)C2=O)cc1 | 72.6% | 1590 nM | 
Cc1cccc(CN2C/C(=C\c3ccc(Br)cc3)C(=O)/C(=C/c3ccc(Br)cc3)C2)c1 | 45.7% |  | 
Brc1ccc(C=C2CNCC3=C2N=C2SC=C(c4ccc(Br)cc4)N2C3c2ccc(Br)cc2)cc1 (configuration not stated) | 48.3% |  | 
Brc1ccc(C=C2CNCC3=C2N=C2SC=C(c4ccc5ccccc5c4)N2C3c2ccc(Br)cc2)cc1 (configuration not stated) | 65.7% | 730 nM | Non-Toxic
O=C1/C(=C/c2ccc(Cl)cc2)CN(Cc2ccc3ccccc3c2)C/C1=C\c1ccc(Cl)cc1 | 42.4% |  | 
C(=C1CNCC2=C1N=C1SC=C(c3ccc4ccccc4c3)N1C2c1ccccc1)c1ccccc1 (configuration not stated) | 41.8% |  | 
O=C1/C(=C/c2ccccc2)CN(Cc2ccc3ccccc3c2)C/C1=C\c1ccccc1 | 67.9% | 1930 nM | 
Cc1ccc(C=C2CNCC3=C2N=C2SC=C(c4ccccc4)N2C3c2ccc(C)cc2)cc1 (configuration not stated) | 45.7% |  | 
Cc1ccc(C2=CSC3=NC4=C(CNCC4=Cc4ccc(Cl)cc4)C(c4ccc(Cl)cc4)N23)cc1 (configuration not stated) | 74.7% | 1090 nM | Non-Toxic
Cc1ccc(C=C2CNCC3=C2N=C2SC=C(c4ccc5ccccc5c4)N2C3c2ccc(C)cc2)cc1 (configuration not stated) | 69.6% | 980 nM | Non-Toxic
Clc1ccc(C=C2CNCC3=C2N=C2SC=C(c4ccc(Br)cc4)N2C3c2ccc(Cl)cc2)cc1 (configuration not stated) | 41.6% |  | 
Cc1ccc(/C=C2\CN(Cc3cccc(C)c3)C/C(=C\c3ccc(C)cc3)C2=O)cc1 | 59.8% | 3220 nM | 
Cc1ccc(C=C2CNCC3=C2N=C2SC=C(c4ccc(Br)cc4)N2C3c2ccc(C)cc2)cc1 (configuration not stated) | 64.6% | 2270 nM | 
O=C1/C(=C/c2ccc(Br)cc2)CN(Cc2ccc3ccccc3c2)C/C1=C\c1ccc(Br)cc1 | 67.2% | 830 nM | Non-Toxic
